From patent US8039468B2, “Method of inhibition of respiratory depression using positive allosteric AMPA receptor modulators” (The Governors of the University of Alberta, priority 2006, dated 2011)
Entries after “also recorded” stand apart in the source; their conditions may differ. Marks after values point to notes of the source that are not given here.

Assays:
rats = experiment: Thermal nociception, hind paw withdrawal test; format: in vivo, rat
[1] = tested on: brainstem-spinal cord preparations; experiment: Brainstem-spinal cord preparation, rhythmic respiratory discharge (C4 ventral root); design: species or system rat
Excerpt: The fetal and neonatal brainstem-spinal cord preparations have been well-characterized and shown to generate complex, coordinated patterns of respiratory-related activity. See, Smith J. C. et al. (1990) and Greer, J. J. et al. (1992). Recordings from cervical ventral and hypoglossal cranial roots provide information regarding the pharmacology of respiratory rhythm generating networks and the pathways transmitting that respiratory drive to key output components of the respiratory motor system, without the confounding influence of peripheral chemoreceptors and supramedullary structures.
Brainstem-spinal cord preparations were carried out as follows: Sprague-Dawley (SD) rat fetuses were delivered from timed-pregnant dams anesthetized with halothane (2% delivered in 95% O2 and 5% CO2) and maintained at 37° C. by radiant heat, following procedures approved by the Animal Welfare Committee at the University of Alberta. The timing of pregnancies was determined by vaginal lavage of the dam. Newborn rat pups were anesthetized with metofane. Newborn pups and embryos were then decerebrated and the brainstem-spinal cord was dissected following procedures similar to those established for perinatal rats. See, Smith, J. C., et al. (1990) J. Neurophysiol. 64:1149-1169; Greer, J. J., et al. (1992) J. Neurophysiol. 67:996-999. The neuraxis was continuously perfused at 27±1° C. (perfusion rate 5 ml/minute, chamber volume of 1.5 ml) with modified Kreb's solution that contained (mM): 128 NaCl, 3.0 KCl, 1.5 CaCl2, 1.0 MgSO4, 24 NaHCO3, 0.5 NaH2PO4, and 30 D-glucose equilibrated with 95% O2-5% CO2 (pH=7.4).

[2] = tested on: medullary slice preparations (preBötC, XII motoneuron nucleus); experiment: Medullary slice preparation, respiratory rhythm (XII nerve root discharge); design: species or system rat; conditions: for DAMGO-induced suppression of inspiratory discharge amplitude, focal injection into XII motorneuron nucleus / DAMGO-induced suppression of respiratory rhythm, focal injection into preBötC: newborn (P2) slice, CX614 200 μM, Compound A 1 mM, DAMGO in bath
Experimental: The medullary slice preparation is a derivative of the brainstem-spinal cord preparation. See, Smith J. C., et al. (1991). It contains the minimum component of neuronal populations within the ventrolateral medulla necessary for generating a respiratory rhythm, the preBötC. The medullary slice also contains a significant portion of the rostral ventral respiratory group, hypoglossal nucleus and XII cranial nerve rootlets from which inspiratory motor discharge is recorded.
Brainstem-spinal cords isolated from newborn rats were pinned down, ventral surface upward, on a paraffin-coated block. See, Funk, G. D., et al. (1993); Smith, J. C., et al. (1991). The block was mounted in the vise of a vibratome bath (Leica, VT1000S). […] A single transverse slice containing the preBötC and more caudal reticular formation regions was then cut (500-600 μm thick), transferred to a recording chamber and pinned down onto a Sylgard elastomer. The medullary slice was continuously perfused with a bathing solution identical to that used for the brainstem-spinal cord preparation with the exception that in some cases the K^+ concentration was increased to 9 mM which facilitates long-term generation of stable rhythm (>5 hours) by these preparations. See, Funk, G. D., et al. (1993); Smith, J. C., et al. (1991). Recordings were made from the hypoglossal (XII) cranial nerve roots, cervical (C4) ventral roots and neuronal population discharge within the ventrolateral medulla with suction electrodes placed over the nerve roots or on the surface of the rhythmic slice preparations.

[3] = tested on: perfused heart in situ preparations; experiment: Perfused heart in situ preparation, phrenic nerve discharge; design: species or system rat; conditions: fentanyl 4 nM, then CX546 50 μM in perfusate
[4] = tested on: inspiratory neuron within the preBötzinger complex; experiment: Whole-cell recording from inspiratory neuron within the preBötzinger complex, medullary slice; format: cell-based, rat
XII motorneuron = format: cell-based, rat; conditions: compound in bathing medium, TTX present
[5] = listed as 4-(BENZOFURAZAN-5-YLCARBONYL)MORPHOLINE

SMILES: O=C(c1ccc2c(c1)OCCO2)N1CCCCC1 [CX546, 1-(1,4-benzodioxan-6-ylcarbonyl)piperidine]
- Latency (s), hind paw withdrawal (rats; Adult (2-3 months), drug alone i.p. (CX546 16 mg/kg pre-administration of fentanyl; fentanyl 130 μg/kg)): 5.3 ± 2.1 s
- Latency (s), hind paw withdrawal (rats; Adult (2-3 months), post-administration of fentanyl 130 μg/kg, CX546 16 mg/kg or naloxone 1 mg/kg i.p.): >20* s
- sensitivity of thermal nociception tests in the control condition (rats; CX546 16 mg/kg on its own): did not change the sensitivity
- Latency (s), hind paw withdrawal (rats; Newborn (P1-P2), drug alone i.p. (CX546 16 mg/kg pre-administration of fentanyl; fentanyl 60 μg/kg)): 4.3 ± 3.2 s
- Latency (s), hind paw withdrawal (rats; Newborn (P1-P2), post-administration of fentanyl 60 μg/kg, CX546 16 mg/kg or naloxone 1 mg/kg i.p.): >20* s
- fentanyl-induced analgesia after subsequent administration of the drug (rats; newborn and adult rats, CX546 16 mg/kg or naloxone 1 mg/kg i.p.): persisted
- baseline frequency and amplitude of breathing (Sprague-Dawley rat; CX546 16 mg/kg i.p. on its own, newborn P0-P2 and adult rats): not significantly altered
- behaviour or arousal state (spontaneous movement, agitation, sedation) (Sprague-Dawley rat; rat, in vivo, ip, 16 mg/kg): without any obvious effect
- frequency of rhythmic respiratory discharge ([1]; E20 preparation, CX546 50-100 μM in bathing medium): markedly enhanced
- DAMGO-induced depression of respiratory frequency and amplitude ([1]; P1-P2, DAMGO 800 nM, then CX546 200 μM bath-applied): alleviated; also recorded: partially reversed
- baseline respiratory frequency ([1]; P3 preparations, bath-applied CX546): no effect on the baseline frequency
- respiratory frequency compared to control ([1]; perinatal preparations E18-P0, bath-applied CX546): significant increase in frequency
- time to restoration of frequency and amplitude to 3 mM [K+] bath levels ([2]; CX546 400 μM bath-applied after rhythm ceased in 3 mM [K+]): ≤ 2 min
- effect on rhythmic respiratory activity after cessation ([2]; CX546 400 μM bath-applied after rhythm ceased in 3 mM [K+], P2 slice): rapid and potent stimulation of respiratory networks; also recorded: restored rhythmic activity of XII motoneurons
- control values of respiratory frequency or amplitude of motor nerve discharge ([2]; CX546 on its own, 9 mM [K+]o): did not significantly alter
- DAMGO-induced depression of respiratory frequency and amplitude ([2]; P1-P2 slice, 9 mM [K+]o, DAMGO 800 nM, then CX546 200 μM bath-applied): alleviated; also recorded: partially reversed
- persistence of respiratory rhythm in presence of compound ([2]; P2 slice, 3 mM [K+]o, CX546 in bath): > 3 h
- fentanyl-induced depression of respiratory frequency and phrenic burst amplitude [3]: counters
- frequency of the rhythm and inspiratory drive potential ([4]; current clamp, low extracellular K+): increased
- amplitude of inward inspiratory drive current ([4]; voltage clamp, same neuron): marked increase

SMILES: C[C@@H](NC(=O)[C@@H](N)Cc1ccc(O)cc1)C(=O)NCC(=O)N(C)[C@@H](Cc1ccccc1)C(=O)NCCO [DAMGO, Tyr-D-Ala-Gly-N-methyl-Phe-Gly-ol-enkephalin, reference compound]
- respiratory frequency and amplitude ([1]; P1 preparation, DAMGO 800 nM bath-applied): markedly suppressed
- respiratory frequency and amplitude ([2]; P1 slice in 9 mM [K+]o, DAMGO 800 nM bath-applied): markedly suppressed

SMILES: O=C(c1ccc2nonc2c1)N1CCOCC1 [Compound A, 4-(benzofurazan-5-ylcarbonyl)morpholine]
- amplitude and duration of glutamate-induced inward currents (XII motorneuron): not significantly altered
- persistence of enhancement of respiratory rhythm (Sprague-Dawley rat; rat, in vivo): at least 1 hour
- DAMGO-induced suppression of inspiratory discharge amplitude, focal injection into XII motorneuron nucleus [2]: alleviates some of the amplitude depression
- DAMGO-induced suppression of respiratory rhythm, focal injection into preBötC [2]: alleviates the frequency depression
- DAMGO-induced suppression of inspiratory discharge amplitude, focal injection into XII motorneuron nucleus [2, 5]: alleviates DAMGO induced suppression of respiratory rhythm
- DAMGO-induced suppression of respiratory rhythm, focal injection into preBötC [2, 5]: alleviates DAMGO induced suppression of respiratory rhythm
- current amplitude in response to glutamate injections ([4]; voltage clamp, TTX present, bath-applied compound): increases
